Several values for one entry are separate records, joined by “and”; a condition that tells them apart may be missing. Identical values can stand only once. Toxic doses and inconclusive results are not listed.
Tested on: P388 leukemia ip, CD2F1 mice, survival T/C
Assay: NCI In Vivo Anticancer Drug Screen. Data for tumor model P388 Leukemia (intraperitoneal) in CD2F1 (CDF1) mice
Conditions: endpoint: median survival time, higher = longer survival
Outline: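 Mice carrying the transplanted tumor received test compound or vehicle. Survival was recorded in each group, and the value is the treated-group measurement divided by that of the vehicle-treated control group.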

[1] = dose: 60.0 mg/kg/injection, schedule: Q01DX005 (ip), vehicle: saline with Tween-80
[2] = dose: 120.0 mg/kg/injection, schedule: Q01DX005 (ip), vehicle: saline with Tween-80
[3] = dose: 100.0 mg/kg/injection, schedule: Q04DX002 (ip), vehicle: Klucel (hydroxypropylcellulose) (HPC)
[4] = dose: 200.0 mg/kg/injection, schedule: Q04DX002 (ip), vehicle: Klucel (hydroxypropylcellulose) (HPC)
[5] = dose: 400.0 mg/kg/injection, schedule: Q04DX002 (ip), vehicle: Klucel (hydroxypropylcellulose) (HPC)
[6] = dose: 200.0 mg/kg/injection, schedule: Q01DX009 (ip), vehicle: saline with Tween-80

`Nc1ccc2ccc3ccc(N)nc3c2n1` was tested, and the T/C [1] was 103 % of control and the T/C [2] was 91 % of control.
With `Cc1cccc(=O)[n-]1.Cc1cccc(=O)[n-]1.Cc1cccc(=O)[n-]1.Cc1cccc(=O)[n-]1.[Rh+2].[Rh+2]` the T/C [3] was 103 % of control, the T/C [4] was 102 % of control and the T/C [5] was 100 % of control.
For `O=S(=O)(c1ccc(NC(=S)NC23CC4CC(CC(C4)C2)C3)cc1)N1CCCCC1`, the T/C (dose: 50.0 mg/kg/injection, schedule: Q01DX009 (ip), vehicle: Klucel (hydroxypropylcellulose) (HPC)) was 88 % of control, the T/C (dose: 100.0 mg/kg/injection, schedule: Q01DX009 (ip), vehicle: Klucel (hydroxypropylcellulose) (HPC)) was 93 % of control and the T/C (dose: 200.0 mg/kg/injection, schedule: Q01DX009 (ip), vehicle: Klucel (hydroxypropylcellulose) (HPC)) was 94 % of control.
With `OCC[CH2][Pb]([c]1ccccc1)([c]1ccccc1)[c]1ccccc1` the T/C (dose: 0.78 mg/kg/injection, schedule: Q01DX009 (ip), vehicle: Klucel (hydroxypropylcellulose) (HPC)) was 98 % of control and 105 % of control, the T/C (dose: 1.56 mg/kg/injection, schedule: Q01DX009 (ip), vehicle: Klucel (hydroxypropylcellulose) (HPC)) was 100 % of control and 104 % of control and 111 % of control and the T/C (dose: 3.13 mg/kg/injection, schedule: Q01DX009 (ip), vehicle: Klucel (hydroxypropylcellulose) (HPC)) was 104 % of control and 110 % of control and 112 % of control. For the same compound, the T/C (dose: 6.25 mg/kg/injection, schedule: Q01DX009 (ip), vehicle: Klucel (hydroxypropylcellulose) (HPC)) was 113 % of control and 118 % of control.
In the case of `O=C1CN(c2cccc(C(F)(F)F)c2)C(=O)CN1/N=C/c1ccc(O)c(O)c1`, the T/C (dose: 6.25 mg/kg/injection, schedule: Q01DX005 (ip), vehicle: saline with Tween-80) is reported as 100 % of control, the T/C (dose: 12.5 mg/kg/injection, schedule: Q01DX005 (ip), vehicle: saline with Tween-80) is reported as 97 % of control and the T/C (dose: 25.0 mg/kg/injection, schedule: Q01DX005 (ip), vehicle: saline with Tween-80) is reported as 96 % of control.
In the case of `CCC(C)NC1(N(C)C)N=C(N(C)C)N=C(N(C)C)O1` (stereo not drawn), the T/C (dose: 50.0 mg/kg/injection, schedule: Q01DX005 (ip), vehicle: saline) is reported as 101 % of control and the T/C (dose: 100.0 mg/kg/injection, schedule: Q01DX005 (ip), vehicle: saline) is reported as 99 % of control.
In the case of `COC(=O)CC[C@@H](C)C1CC[C@H]2[C@@H]3CC[C@H]4C=C(O)C(=O)C[C@]4(C)[C@H]3C[C@H](OC(C)=O)[C@]12C` (stereo partly drawn), the T/C [3] is reported as 102 % of control, the T/C [4] is reported as 101 % of control and the T/C [5] is reported as 108 % of control.
In the case of `c1cn[nH]c1`, the T/C (dose: 25.0 mg/kg/injection, schedule: Q01DX009 (ip), vehicle: saline) is reported as 93 % of control, the T/C (dose: 50.0 mg/kg/injection, schedule: Q01DX009 (ip), vehicle: saline) is reported as 101 % of control and the T/C (dose: 100.0 mg/kg/injection, schedule: Q01DX009 (ip), vehicle: saline) is reported as 111 % of control.
`Cc1cc(N(CCCl)CCCl)ccc1C=Nc1ccc(F)cc1` was tested, and the T/C (dose: 100.0 mg/kg/injection, schedule: Q04DX003 (ip), vehicle: saline with Tween-80) was 104 % of control, the T/C [6] was 155 % of control and the T/C (dose: 264.0 mg/kg/injection, schedule: Q04DX003 (ip), vehicle: saline with Tween-80) was 109 % of control. For the same compound, the T/C (dose: 400.0 mg/kg/injection, schedule: Q01DX009 (ip), vehicle: saline with Tween-80) was 165 % of control, the T/C (dose: 400.0 mg/kg/injection, schedule: Q04DX003 (ip), vehicle: saline with Tween-80) was 150 % of control and the T/C (dose: 600.0 mg/kg/injection, schedule: Q04DX003 (ip), vehicle: saline with Tween-80) was 168 % of control.
In the case of `CCOC(=O)/C(C#N)=C(\CCC(C(=O)O)N1C(=O)c2ccccc2C1=O)OC` (stereo not drawn), the T/C [3] is reported as 102 % of control, the T/C [4] is reported as 102 % of control and the T/C [5] is reported as 110 % of control.
For `COc1cc(C(O)(CCN2CCCCC2)c2ccc3c(c2)OCO3)cc(OC)c1OC` (stereo not drawn), the T/C (dose: 50.0 mg/kg/injection, schedule: Q01DX005 (ip), vehicle: saline + Tween-80 + alcohol) was 94 % of control, the T/C (dose: 100.0 mg/kg/injection, schedule: Q01DX005 (ip), vehicle: saline + Tween-80 + alcohol) was 100 % of control and the T/C (dose: 200.0 mg/kg/injection, schedule: Q01DX005 (ip), vehicle: saline + Tween-80 + alcohol) was 93 % of control.
In the case of `COc1ccc(OC)c(NCCCN2C(=O)c3ccccc3C2=O)c1`, the T/C [1] is reported as 90 % of control and the T/C [2] is reported as 86 % of control.
For `CCCOc1c(C)cc(C(=O)CCN2CCOCC2)cc1Cl`, the T/C (dose: 50.0 mg/kg/injection, schedule: Q01DX009 (ip), vehicle: saline with Tween-80) was 113 % of control, the T/C (dose: 100.0 mg/kg/injection, schedule: Q01DX009 (ip), vehicle: saline with Tween-80) was 112 % of control and the T/C [6] was 99 % of control.
For `O=C1CCC(Cc2ccc(Cl)cc2Cl)C(=O)N1` (stereo not drawn), the T/C [1] was 96 % of control, the T/C [2] was 94 % of control and the T/C (dose: 240.0 mg/kg/injection, schedule: Q01DX005 (ip), vehicle: saline with Tween-80) was 87 % of control.

From PubChem BioAssay AID330 (DTP/NCI, 2004)
